Where no end group is shown, it is not given here.

Here are results for 4 molecules from patent US10350272B2, “Calcitonin analogues for treating diseases and disorders” (KeyBioscience AG, priority 2015, dated 2019).

The subject of assay [1] is liver sections from HFD-fed rats. The experiment in a line: Oil-Red-O staining of frozen liver sections. It counts as in vivo, rat. The procedure: At termination of the study of Example 2 the rat livers were embedded using snap freezing in OCT, and then sectioned using a cryomicrotome. Sections were prepared from four groups, KBP-042 in HFD rats, KBP-089 in HFD rats, control HFD rats, and a lean rat comparison.
The sections were stained using Oil-Red-O staining. […] The lipid accumulation in pair-fed KBP-089 liver exceeded KBP-089 treated rats with 66.5% (p<0.001) and was not significant different from vehicle (0.6711). Statistical test performed was one-way ANOVA with Dunnet's post test for multiple comparisons. **p<0.01, ***p<0.001.

For assay [2] the following is noted: amylin dosage 100 μg kg^−1, compared with saline; cited from earlier work.
In a further assay the test system is rats. As to conditions: s.c., single dose 1000 mU/rat or 0.5-50 mU/rat over 12 weeks, dose dependently; cited from earlier work.
A further assay concerns cultured rat hepatocytes. As to conditions: cited from earlier work.

Take “AcCSNLSTCMLGRLSQDLHRLQTYPKTDVGANAP-NH2 (Ac-CSNLSTCMLGRLSQDLHRLQTYPKTDVGANAP-NH2; ends and bridges not checked) [KBP-089]”: the “excess of lipid accumulation in pair-fed KBP-089 liver over KBP-089 treated rats (Oil-Red-O)” value in assay [1] (2.5 μg/kg, p<0.001) is listed as 66.5%. Further, the “decrease of HFD-induced lipid accumulation in liver compared to vehicle (Oil-Red-O)” value in assay [1] (HFD rats, 2.5 μg/kg daily) worked out at 155.3%.

As to “amylin (KCNTATCATQRLANFLVRSSNNLGPVLPPTNVGSNTY; ends and bridges not checked; cysteine pairing not given here; UniProt P12969 38-74, looked up) [amylin administered alone in Kusakabe et al (2011), reference compound]”, the tissue triglyceride content entry in assay [2] is reported as “neither L nor A decreased”.

Take “salmon calcitonin [synthetic salmon calcitonin]”: in the assay with rats, the serum cholesterol levels result was “reduced”, the serum lipoprotein levels entry is “reduced” and the serum triglyceride levels result is recorded as “reduced”. Also, in the assay on cultured rat hepatocytes, the “incorporation of acetate into cholesterol and triglycerides” value is on record as “reduced”.

B1: leptin (protein, UniProt P50596 22-167, looked up)
Leptin: VPIHKVQDDTKTLIKTIVTRINDISHTQSVSARQRVTGLDFIPGLHPILSLSKMDQTLAVYQQILTSLPSQNVLQIAHDLENLRDLLHLLAFSKSCSLPQTRGLQKPESLDGVLEASLYSTEVVALSRLQGSLQDILQQLDLSPEC
notes: leptin administered alone in Kusakabe et al (2011)
B1: the tissue triglyceride content result in assay [2] is “neither L nor A decreased”.
